# In ChEMBL document CHEMBL1141321, “Amphidinolides B6 and B7, cytotoxic macrolides from a symbiotic dinoflagellate Amphidinium species” (J Nat Prod, 2007):
# Tested on: DG-75
# Test: Cytotoxicity against human DG75 cells
# Assay type: functional, cell-based
row,SMILES,IC50 [mg/L]
1,C=C1/C=C(\C)[C@@H](C)C[C@H](O)CC(=O)[C@H](O)[C@@H](O)[C@H](C)C[C@H](C)OC(=O)[C@@H](C)[C@@H](O)CCCC[C@@H]2O[C@H]2C[C@H](C)C1 [AMPHIDINOLIDE B6],0.02
2,C=C1/C=C(\C)[C@@H](C)C[C@H](O)CC(=O)[C@H](O)[C@@H](O)[C@H](C)C[C@H](C)OC(=O)/C(C)=C/CC/C=C/[C@@H]2O[C@H]2C[C@H](C)C1 [AMPHIDINOLIDE B7],0.4
3,C=C1/C=C(\C)[C@@H](C)C[C@H](O)CC(=O)[C@H](O)[C@@H](O)[C@H](C)C[C@H](CO)OC(=O)/C(C)=C/CC/C=C/[C@@H]2O[C@H]2C[C@H](C)C1 [AMPHIDINOLIDE H],0.001
